{"source": "patent US11834401B2", "about": "“Treating and preventing diseases by modulating cell mechanics” (THE JOHNS HOPKINS UNIVERSITY, priority 2013, dated 2023)", "format_in_all_cases": "cell-based, human", "key": {"ASPC-1 cells [1]": {"system": "ASPC-1 cells", "experiment": "Transwell migration assay", "conditions": "24 hr transwell", "description": "Cells were starved with serum-reduced media for 24 hr, harvested from flasks with trypsin/EDTA, washed with media containing 1% FBS, and resuspended at cell density of 2-5×10^5 cells/ml. 0.2 ml of cells were placed in the upper chamber of transwell (BD Biosciences), with 20% FBS-containing media in the lower well and incubated at 37° C. for 24 hr. Both sides of the transwell contained 4-HAP at the appropriate concentration, with final DMSO concentration at 0.0025%. The transwells were MeOH-fixed and stained with 0.5% crystal violet for 20 min, followed by counting from six random microscopic fields."}, "ASPC-1 cells [2]": {"system": "ASPC-1 cells", "experiment": "Micropipette aspiration creep test", "conditions": "500 nM, 1 hr, 0.25 nN/μm^2", "description": "(§1) The instrumental and experimental setups have been previously described (Effler J C, et al., 2006; Kee Y-S, et al., 2013). Micropipette aspiration assays were all carried out in growth media with 0.1% DMSO. For cortical tension measurements of Dictyostelium cells, pressure was applied to the cell cortex with a micropipette (2-3 m radius, Rp) to the equilibrium pressure (ΔP) where the length of the cell inside the pipette (Lp) was equal to Rp. The effective cortical tension (Teff) was calculated by applying the Young-Laplace equation: ΔP=2Teff(1/Rp-1/Rc), where Rc is the radius of the cell and ΔP is the equilibrium pressure when Lp=Rp (Derganc J, et al., 2000; Octtaviani E, et al., 2006). For creep tests on mammalian strains, a constant aspiration stress was applied over 60 s. The micropipette radius was 3.5-4.5 m. For quantification, the Lp/Rp ratio values was measured every two seconds and plotted as a function of time. A10.7 and HEK293 cells could only be aspirated at a low pressure range (0.15 nN/μm^2), while HPDE, ASPC-1, and HL-60 cells could be aspirated at higher pressure ranges (0.25 nN/μm^2) because they were stiffer."}, "HEK293 cells": {"system": "HEK293 cells", "experiment": "Micropipette aspiration creep test", "conditions": "500 nM, 1 hr, 0.15 nN/μm^2", "description": "as §1"}, "Panc10.05 cells": {"system": "Panc10.05 cells", "experiment": "Micropipette aspiration effective cortical tension (Teff), knockdown lines", "description": "The instrumental and experimental setups have been described previously. MPA assays and RT-DC measurements were all carried out in growth media for cortical tension measurements or Leibovitz L-15 media (Gibco) when fluorescence was quantified.\nPressure was applied to the cell cortex with a micropipette (6- to 8-μm radius; Rp) to the equilibrium pressure (ΔP), where the length of the cell inside the pipette (Lp) was equal to Rp. The effective cortical tension (Teff) was calculated by applying the Young-Laplace equation: ΔP=2Teff (1/Rp−1/Rc), where Rc is the radius of the cell and ΔP is the equilibrium pressure when Lp=Rp. Images were collected with an Olympus IX81 microscope equipped with MetaMorph software and analyzed using ImageJ (rsb.info.nih.gov/ij)."}}, "data": [{"smiles": "CC(=O)c1ccc(O)cc1", "note": "[4-HAP, 4-hydroxyacetophenone]", "values": [{"measurement": "in vitro migration", "setting": "ASPC-1 cells [1]", "value": "dose-dependent decrease"}, {"measurement": "deformability in creep test", "setting": "ASPC-1 cells [2]", "value": "stiffens ASPC-1 cells, shifting them towards HPDE-like mechanics"}, {"measurement": "deformability in creep test", "setting": "HEK293 cells", "value": "stiffens the soft HEK293 cells"}, {"measurement": "effective cortical tension", "setting": "Panc10.05 cells; myosin IIA knockdown cells", "value": "increases the cortical tension in myosin IIA knockdown cells"}, {"measurement": "effective cortical tension", "setting": "Panc10.05 cells; myosin IIC knockdown cells", "value": "unchanged by 4-HAP challenge"}, {"measurement": "effective cortical tension", "setting": "Panc10.05 cells; sh-control cells, 500-nM", "value": "increases the cortical tension of sh-control cells"}]}]}
